Results as given in patent US20040018528A1, “Novel biomarkers of tyrosine kinase inhibitor exposure and activity in mammals” (Sugen, Inc., priority 2002, published 2004).
Several values for one entry are separate records, joined by “and”; a condition that tells them apart may be missing. Equal values may be shown once. Entries after “also recorded” stand apart in the source; their conditions may differ.

Columns and labels:
C-reactive protein (CRP) = test: C-reactive protein plasma ELISA; format: in vivo, human; details: patients, FIG. 27
Method: (§1) Reagents for FLT3 ligand (FL) and IL-6 ELISA kits were obtained from R&D Systems, Inc. (Minneapolis, Minn.; catalog #s DFK00, Q6000). C-reactive protein (CRP) (accession ID AAA 52075) ELISA kits were obtained from KMI Diagnostics (Minneapolis, Minn.; catalog #EU59131). ELISAs were performed on patient plasma according to the manufacturers' instructions. The FL and CRP kits relied on a colorimetric readout; the optical density of each well was determined using a microplate spectrophotometer and data was analyzed using KC-4 software from Bio-Tek Instruments, Inc. The IL-6 kit was a chemiluminescent sandwich ELISA; luminescence values were determined on a microplate luminometer. SOFTmaxPRO software was used to extrapolate cytokine concentrations from the standard curves.

VEGF/PLGF heterodimers = test: Hybrid ELISA for VEGF/PLGF heterodimers in patient plasma; format: in vivo, human; details: Trial C
Excerpt: Heterodimers of VEGF and PLGF have been reported in the scientific literature. To measure heterodimers, a hybrid ELISA assay was used, combining reagents from both the R&D Systems VEGF and PLGF ELISA kits (where VEGF antibodies are used in capture step and PLGF antibodies are used in detection step).

IP-10 = IP-10 plasma ELISA, Compound 1 Phase I trials; format: in vivo, human
Method: (§2) In Trials A and B, patients received Compound 1.
(§3) Data analysis was performed for each marker.

HUVEC = test: pro-MMP1 ELISA of HUVEC conditioned media; format: cell-based, human; details: for Average pro-MMP1: HUVEC conditioned media
Method: Cells were propagated at 37° C. in a humidifed atmosphere of 5% CO2 using standard cell culture techniques. Cells were plated in 10-cm tissue culture plates at 8.5×10^5 cells/ml. After 6 hours the cells were quiesced by serum starvation overnight in starvation medium (EBM containing 0.5% FBS). […] Conditioned media was stored at −70° C. until subsequent analysis.
Reagents for human pro-Matrix Metalloproteinase 1 (pro-MMP-1) ELISA kits were obtained from R&D Systems, Inc. (Minneapolis, Minn.; catalog #DMP100). ELISAs were performed on conditioned media samples according to the manufacturers' instructions. The optical density of each well was determined using a universal microplate spectrophotometer (μQuant) from Bio-Tek Instruments, Inc. (Winooski, Vt.). KC-4 software from Bio-Tek Instruments, Inc. was used to extrapolate cytokine concentrations from the standard curves.

pro-MMP1 = pro-MMP1 levels in plasma of Study B patients; format: in vivo, human; details: Study B patients after receiving compound
[1] = test system: OB-cadherin 1 (cadherin 11); test: Immunohistochemistry of OB-cadherin 1 in Colo205 xenograft tumors; format: in vivo, mice; details: 24 or 48 hours exposure, vs vehicle treated, IHC
Excerpt: Colo205 human colon xenograft tumors were isolated and fixed in Streck Tissue Fixative (Streck Laboratories, Inc., La Vista, […].). Samples used in immunohistochemistry were sent out to BioPathology Sciences Medical Corporation (South San Francisco, Calif.) for paraffin embedding and sectioning.
A rabbit polyclonal antibody recognizing the cytoplasmic tail region of OB-cadherin 1 (cadherin 11) was purchased from Zymed Laboratories, Inc. (Zymed reagent #71-7600; South San Francisco, Calif.).
Sections (4-5 μm) stained using an automated immunohistochemistry system (Benchmark System, Ventana Medical Systems, Inc., Tucson, Ariz.). In brief, slides were deparaffinized using heat at 75° C. and Ventana's EZ Prep product (Ventana reagent #950-102). Antigen retrieval was performed by incubating the slides for 30 min with Ventana's CC2 product (Ventana reagent #950-123), a citrate-based solution with pH 6.0. Primary antibody (5 μg/ml) was incubated for 24 min at room temperature, followed by a secondary detection system, using biotinylated secondary antibody (Vector anti-rabbit secondary, BA-1000, at 2.5 μg/ml; Vector Laboratories, Burlingame, Calif.) with incubation time of 8 min. […] All samples analyzed for OB-cadherin 1 expression were also stained with the omission of primary antibody as a negative control.

HUVECs = test: 2D gel analysis of conditioned media of VEGF-stimulated HUVECs; format: cell-based, human; details: HUVEC conditioned media; VEGF and compound 1 (1 uM) at 24 h; Run #1, Run #2
Method: Thawed conditioned media samples were precipitated with three volumes of acetone for 2 hours at −20° C., then centrifuged at 13000 RPM for 15 minutes. […] Protein was quantitated with Bio-Rad Protein Assay (cat#500-0006) using the microassay for cuvettes protocol.
Samples were diluted to 0.3 μg/μl with IEF Buffer containing 1% IPG Buffer pH 3-10 (Amersham). Eighteen centimeter IPG strips pH 3-10 (Amersham) were rehydrated with 120 μg sample (400 μL) under Drystrip Cover Fluid (Amersham) on the IPGphor (Amersham) at 20° C. for 18 hours. Strips were focused with the following program: 200 volts for 1 hour, ramped from 200 volts to 1000 volts over two hours, held at 1000 volts for 1 hour, ramped from 1000 volts to 8000 volts over 6 hours, then held at 8000 volts for 10 hours. […] Gels were over-layed with water-saturated butanol (Fisher), and left to polymerize at room temperature overnight.
Focused strips were equilibrated for ten minutes with gentle shaking in 10 milliliters Equilibration Buffer: 6 M Urea (Fisher), 50 mM tris-HCl pH 8.8 (Fisher), 30% glycerol (Fisher), 2% SDS (Fisher) with 1% dithiothreitol followed by ten minutes in Equilibration Buffer with 4% iodoacetamide.
The equilibrated strips were loaded onto the gel surfaces and sealed with hot agarose overlay solution containing 0.5% agarose in 50 mM tris-HCl pH 6.8, 2% SDS. […]

I-TAC = I-TAC plasma ELISA, Compound 1 Phase I trials; format: in vivo, human
Method: as §2, §3

IL-6 = IL-6 plasma ELISA; format: in vivo, human; details: patients, FIG. 26
Method: as §1

MIG = MIG plasma ELISA, Compound 1 Phase I trials; format: in vivo, human; details: individual patients; in pg/mL (unit assumed)
Method: as §2, §3

42 human cytokines = test: Antibody membrane array (RayBio Human Cytokine Array III) screen of patient plasma; format: in vivo; details: plasma of one Trial B patient, confirmed by MIG ELISA
Method: All of the ELISA-based screening of candidate proteins were performed with commercially available ELISA kits; the kits for the biomarkers described in this report are all available from R&D Systems (Minneapolis, Minn.). A commercially available membrane array containing antibodies for the detection of 42 human cytokines was also used in screening of a patient's plasma samples before and after treatment. The antibody array used in cytokine screening (RayBio Human Cytokine Array III) was from RayBiotech (Norcross, Ga.).

FLT3 ligand (FL) = test: FLT3 ligand plasma ELISA; format: in vivo, human
Method: as §1, with “C-reactive protein (CRP) (accession ID AAA 52075) ELISA kits were obtained from KMI Diagnostics (Minneapolis, Minn.; catalog #EU59131).” left out

[2] = patients checked for both proteins

## CCN(CC)CCNC(=O)c1c(C)[nH]c(C=C2C(=O)Nc3ccc(F)cc32)c1C [Compound 1, 5-(5-Fluoro-2-oxo-1,2-dihydro-indol-3-ylidenemethyl)-2,4-dimethyl-1H-pyrrole-3-carboxylic acid (2-diethylamino-ethyl)-amide]
C-reactive protein (CRP)
  C-reactive protein (CRP) plasma level during treatment: induced
VEGF/PLGF heterodimers
  patients tested with increase in plasma levels of VEGF/PLGF heterodimer: 3 of 3
IP-10; individual patients, >500 = above highest standard
  IP-10 plasma level, end C1 dosing: >500
IP-10; [2]
  patients with MIG and IP-10 induced in tandem: 6 of 6
HUVEC; 10 nM pre-treatment, 10 min post-VEGF
  Average pro-MMP1: 5.41 ng/mL
HUVEC; 10 nM pre-treatment, 8 hr post-VEGF
  Average pro-MMP1: 14.93 ng/mL
HUVEC; 10 nM pre-treatment, 24 hr post-VEGF
  Average pro-MMP1: 70.21 ng/mL
HUVEC; 10 nM pre-treatment, 48 hr post-VEGF
  Average pro-MMP1: 135.35 ng/mL
HUVEC; 100 nM pre-treatment, 10 min post-VEGF
  Average pro-MMP1: 5.78 ng/mL
HUVEC; 100 nM pre-treatment, 8 hr post-VEGF
  Average pro-MMP1: 12.75 ng/mL
HUVEC; 100 nM pre-treatment, 24 hr post-VEGF
  Average pro-MMP1: 50.26 ng/mL
HUVEC; 100 nM pre-treatment, 48 hr post-VEGF
  Average pro-MMP1: 128.75 ng/mL
HUVEC; 1 uM pre-treatment, 10 min post-VEGF
  Average pro-MMP1: 5.04 ng/mL
HUVEC; 1 uM pre-treatment, 8 hr post-VEGF
  Average pro-MMP1: 14.48 ng/mL
HUVEC; 1 uM pre-treatment, 24 hr post-VEGF
  Average pro-MMP1: 50.42 ng/mL
HUVEC; 1 uM pre-treatment, 48 hr post-VEGF
  Average pro-MMP1: 103.09 ng/mL
HUVEC; VEGF-treated HUVEC, pre-incubation at 10 nM, 100 nM or 1 uM
  levels of pro-MMP1 in HUVEC conditioned media: decreased
pro-MMP1
  pro-MMP1 levels in plasma of patients: increased
[1]
  protein expression of OB-cadherin 1 (cadherin 11): up-regulated; also recorded: up-regulation
HUVECs
  Spot #1202 (pro-MMP-1) quantification, 2D gel: 270 and 484.7
I-TAC; individual patients, in pg/mL (unit assumed)
  I-TAC plasma level, end C1 dosing: >4000.0 and 212.26
I-TAC; [2]
  patients with MIG and I-TAC induced in tandem: 5 of 5
IL-6
  interleukin-6 (IL-6) plasma level during treatment: induced
MIG
  MIG plasma level, end C1 dosing: 138.56 and 739.71
42 human cytokines
  level of MIG after treatment vs baseline: significantly higher
FLT3 ligand (FL); 18 patients enrolled in Trial B, day 1 to day 28
  patients exhibiting an increase in FLT3 ligand (FL) concentration: 100%
FLT3 ligand (FL); expanded set of patients, FIG. 25
  FLT3 ligand (FL) plasma level during treatment: induced; also recorded: Dramatic induction
